# Columns and labels:
# [1] = Phase 1 open-label study: impact of CYP1A2 inhibition (fluvoxamine) and induction (smoking) on pirfenidone pharmacokinetics; type: in vivo, human; conditions: for effect of fluvoxamine co-administration on AUC0-∞: Day 11 vs Day 1, paired t-test; for Ratio of Day 11 AUC0-∞ to Day 1 AUC0-∞, Mean (SD) / Ratio of Day 11 AUC0-∞ to Day 1 AUC0-∞, Median (25th-75th): Day 11 with fluvoxamine; for AUC0-∞ Mean (SD) / AUC0-∞ Median (25th-75th): single 801-mg dose of pirfenidone, healthy subjects n = 51, plasma
# Experimental: Fifty-four subjects were to be enrolled in two groups, consisting of 27 subjects who were smokers (Group 1) and 27 subjects who were nonsmokers (Group 2). Each group (smokers and nonsmokers) was to include a minimum of nine females and nine males, and attempts were to be made to enroll equal numbers of each sex in each group.
# All pharmacokinetic (PK) analyses were conducted using population PK methods using Monte-Carlo parametric expectation maximization as implemented in the open-source software program S ADAPT 1.5.6 (Bauer et al., AAPS Journal 9 (1):E60-83, 2007). The structural model for the analysis was obtained from a preliminary population PK analysis.
# If other subject characteristics (such as body size or age) were also associated with the ratio of AUC0-∞ on Day 11 to that on Day 1, the significance of these covariates was also tested.
# CYP1A2 = CYP1A2 (Homo sapiens, UniProt P05177); assay: in vitro experiments on pirfenidone metabolism by CYP isoforms; type: in vitro ADME
# [2] = test system: multiple other CYPs (1A1, 2A6, 2B6, 2C8, 2C9, 2C18, 2C19, 2D6, 2E1, 2J2, 3A4, 3A5, 4A11, and 4F2); assay: as above; type: in vitro ADME; conditions: each isoform
# [3] = pirfenidone therapy, oral; cited from earlier work
# Chain of CYP1A2 (P05177 whole entry, canonical isoform): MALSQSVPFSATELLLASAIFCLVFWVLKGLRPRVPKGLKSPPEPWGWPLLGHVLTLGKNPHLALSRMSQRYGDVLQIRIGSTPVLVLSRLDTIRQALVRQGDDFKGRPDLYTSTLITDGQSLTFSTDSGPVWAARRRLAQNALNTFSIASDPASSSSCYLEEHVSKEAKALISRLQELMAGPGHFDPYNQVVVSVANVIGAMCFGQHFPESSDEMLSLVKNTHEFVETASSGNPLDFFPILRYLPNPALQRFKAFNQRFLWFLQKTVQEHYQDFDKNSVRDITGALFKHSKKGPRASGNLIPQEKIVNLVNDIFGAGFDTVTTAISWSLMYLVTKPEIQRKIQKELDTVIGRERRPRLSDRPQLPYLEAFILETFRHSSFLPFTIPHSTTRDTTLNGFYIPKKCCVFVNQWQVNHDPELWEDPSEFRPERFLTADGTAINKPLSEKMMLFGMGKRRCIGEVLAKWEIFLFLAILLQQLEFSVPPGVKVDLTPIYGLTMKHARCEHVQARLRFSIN
"ratio of Cmax on Day 11 to the Cmax on Day 1, mean (95% CI) ([1]; Day 11 after fluvoxamine vs Day 1, all subjects)",effect of fluvoxamine co-administration on AUC0-∞ [1],"Ratio of Day 11 AUC0-∞ to Day 1 AUC0-∞, Mean (SD) ([1]; Nonsmokers (N 25))","Ratio of Day 11 AUC0-∞ to Day 1 AUC0-∞, Median (25th-75th) ([1]; Nonsmokers (N 25))","Ratio of Day 11 AUC0-∞ to Day 1 AUC0-∞, Mean (SD) ([1]; Smokers (N 26))","Ratio of Day 11 AUC0-∞ to Day 1 AUC0-∞, Median (25th-75th) ([1]; Smokers (N 26))",AUC0-∞ Mean (SD) ([1]; Study Day 1: Pre-Fluvoxamine),AUC0-∞ Median (25th-75th) ([1]; Study Day 1: Pre-Fluvoxamine),AUC0-∞ Mean (SD) ([1]; Study Day 11: Post-Fluvoxamine),AUC0-∞ Median (25th-75th) ([1]; Study Day 11: Post-Fluvoxamine),"drop in AUC0-∞ in smokers after accounting for differences in BSA ([1]; Day 1 estimates, AUC0-∞ normalized to body surface area, multiple linear regression, smokers vs nonsmokers)","increase in Cmax after administration of fluvoxamine, on average ([1]; after administration of fluvoxamine)","exposure (AUC0-∞) times higher after fluvoxamine, on average ([1]; after ten days of dosing with fluvoxamine)","decrease in pirfenidone exposure (AUC0-∞) in patients that concomitantly smoke, on average ([1]; compared to patients that do not smoke)","exposure (AUC0-∞) in patients who smoke as % of exposure in patients that didn't smoke, on average ([1]; smokers vs nonsmokers)",share of pirfenidone metabolism by CYP1A2 (CYP1A2),share of pirfenidone metabolism by each of the other CYPs [2],Structure (SMILES),"incidence of most common adverse reactions (nausea, rash, dyspepsia, dizziness, vomiting, photosensitivity reaction, anorexia) [3]"
0.369 (0.349-0.390),not a statistically significant effect,1.05 (0.114),1.03 (0.978-1.11),1.12 (0.0951),1.13 (1.04-1.19),29.3 (8.22) mg · hr/L,26.9 (22.0-33.7) mg · hr/L,31.7 (8.96) mg · hr/L,29.4 (25.4-36.5) mg · hr/L,–,–,–,–,–,–,–,"O=C(O)c1ccc(=O)n(-c2ccccc2)c1 [5-Carboxy-Pirfenidone, 5-carboxy-pirfenidone]",–
–,significant increase,–,–,–,–,–,–,–,–,~50%,two-fold,~6 times,about 50%,about 50%,approx. 48%,< 13%,"Cc1ccc(=O)n(-c2ccccc2)c1 [Pirfenidone, 5-methyl-1-phenyl-2-(1H)-pyridone, reference compound]",> 10%

# Reference: patent publication US8754109B2 (Intermune, Inc., priority 2010, dated 2014)
